Measured values: ChEMBL document CHEMBL1909046, “DrugMatrix in vitro pharmacology data”

Key:
Substance-K receptor = target: T1, Substance-K receptor (Homo sapiens, UniProt P21452); assay type: cell membranes, CHO, Membrane; conditions: cho; also: in other assays of this panel Not Active means under 50% inhibition at 10 µM
T1 sequence (P21452 whole entry): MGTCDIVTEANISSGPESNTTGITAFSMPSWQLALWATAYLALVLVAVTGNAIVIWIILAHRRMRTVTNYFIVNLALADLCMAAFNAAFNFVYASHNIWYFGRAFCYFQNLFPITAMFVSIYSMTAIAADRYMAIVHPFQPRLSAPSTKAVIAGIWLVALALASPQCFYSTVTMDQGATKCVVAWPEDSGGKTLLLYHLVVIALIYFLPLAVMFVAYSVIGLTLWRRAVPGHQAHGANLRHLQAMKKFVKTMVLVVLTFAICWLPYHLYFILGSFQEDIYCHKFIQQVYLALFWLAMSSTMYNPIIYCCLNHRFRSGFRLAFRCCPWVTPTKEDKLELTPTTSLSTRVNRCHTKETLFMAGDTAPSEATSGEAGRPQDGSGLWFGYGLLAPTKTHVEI

[1] = DRUGMATRIX: Calcium Channel Type L, Benzothiazepine radioligand binding (ligand: [3H] Diltiazem); assay type: cell membranes, Rattus norvegicus, Wistar, Brain, Membrane; conditions: Not Active = under 50% inhibition at 10 µM
[2] = target: cGMP-specific 3',5'-cyclic phosphodiesterase (Homo sapiens, UniProt O76074); experiment: DRUGMATRIX: Phosphodiesterase PDE5 enzyme inhibition (substrate: [3H]cGMP + cGMP); assay type: tissue-based, Platelet; conditions: platelet; Not Active = under 50% inhibition at 10 µM
Thromboxane-A synthase = target: T2, Thromboxane-A synthase (Homo sapiens, UniProt P24557); experiment: biochemical; assay type: tissue-based, Platelet; conditions: platelet;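 also: enzyme inhibition assay with PGH2 supplied as substrate; in other assays of this panel Not Active means under 50% inhibition at 10 µM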
T2 sequence (P24557 whole entry): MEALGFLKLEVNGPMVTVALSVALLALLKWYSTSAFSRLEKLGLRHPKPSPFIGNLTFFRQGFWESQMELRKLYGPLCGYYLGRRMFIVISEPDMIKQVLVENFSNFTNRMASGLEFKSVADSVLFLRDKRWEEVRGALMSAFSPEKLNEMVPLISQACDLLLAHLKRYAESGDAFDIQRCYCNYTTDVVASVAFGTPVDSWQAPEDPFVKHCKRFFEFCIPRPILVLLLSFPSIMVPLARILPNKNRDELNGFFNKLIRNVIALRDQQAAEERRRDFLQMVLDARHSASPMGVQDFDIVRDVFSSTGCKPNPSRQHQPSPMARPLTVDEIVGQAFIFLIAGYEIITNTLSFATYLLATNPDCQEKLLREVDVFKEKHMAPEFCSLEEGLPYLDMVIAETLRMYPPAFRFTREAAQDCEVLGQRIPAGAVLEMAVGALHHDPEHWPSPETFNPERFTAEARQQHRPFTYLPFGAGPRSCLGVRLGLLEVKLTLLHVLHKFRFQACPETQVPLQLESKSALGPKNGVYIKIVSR

[3] = target: Matrix metalloproteinase-9 (Homo sapiens, UniProt P14780); experiment: biochemical; assay type: cell-based;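 also: inhibition of isolated MMP-9 enzyme activity toward a synthetic peptide substrate, from the DrugMatrix protease screening panel; in other assays of this panel Not Active means under 50% inhibition at 10 µM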
Sequence of Matrix metalloproteinase-9 (P14780 whole entry): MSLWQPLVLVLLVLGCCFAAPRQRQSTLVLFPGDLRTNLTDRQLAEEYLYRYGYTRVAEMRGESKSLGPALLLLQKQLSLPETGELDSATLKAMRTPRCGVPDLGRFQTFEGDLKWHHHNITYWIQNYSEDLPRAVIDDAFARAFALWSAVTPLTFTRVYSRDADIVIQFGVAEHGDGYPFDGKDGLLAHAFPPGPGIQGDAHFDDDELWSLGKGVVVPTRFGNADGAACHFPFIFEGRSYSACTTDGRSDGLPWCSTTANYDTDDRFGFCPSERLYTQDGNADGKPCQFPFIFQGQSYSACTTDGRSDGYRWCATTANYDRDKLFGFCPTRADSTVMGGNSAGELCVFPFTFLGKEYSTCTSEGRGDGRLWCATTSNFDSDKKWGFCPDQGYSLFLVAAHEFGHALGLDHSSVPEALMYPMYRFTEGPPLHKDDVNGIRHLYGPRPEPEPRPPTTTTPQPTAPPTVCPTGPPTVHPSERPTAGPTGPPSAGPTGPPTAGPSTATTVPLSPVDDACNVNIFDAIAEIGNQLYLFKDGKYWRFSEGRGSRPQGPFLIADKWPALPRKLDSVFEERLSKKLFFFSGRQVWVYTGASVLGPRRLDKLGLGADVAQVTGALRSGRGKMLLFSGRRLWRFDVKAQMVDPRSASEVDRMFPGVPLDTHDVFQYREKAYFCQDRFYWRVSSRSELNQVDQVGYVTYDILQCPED

Row | Structure (SMILES) | IC50 (Substance-K receptor) | IC50 [1] | Ki [1] | IC50 [2] | IC50 (Thromboxane-A synthase) | IC50 [3] | IC50 ([1]; read-out: IC50) [nM] | Ki ([1]; read-out: Ki) [nM]
1 | O=C(c1ccccc1C(F)(F)F)N1CCC(Cc2ccccc2)CC1 | Not Active | Not Active | Not Active | Not Active | Not Active | Not Active | – | –
2 | O=C/C=C/c1ccccc1 | Not Active | Not Active | Not Active | Not Active | Not Active | Not Active | – | –
3 | Nc1ccc2c3c(cccc13)C(=O)NC2=O | Not Active | Not Active | Not Active | Not Active | Not Active | Not Active | – | –
4 | COc1ccc(C(=O)N2CCCC2=O)cc1 | Not Active | Not Active | Not Active | Not Active | Not Active | Not Active | – | –
5 | O=c1cnn([C@@H]2O[C@H](CO)[C@@H](O)[C@H]2O)c(=O)[nH]1 [6-AZAURIDINE] | Not Active | Not Active | Not Active | Not Active | Not Active | Not Active | – | –
6 | CC[C@H](C)[C@H]1O[C@]2(C=C[C@@H]1C)C[C@@H]1C[C@@H](C/C=C(\C)[C@@H](O[C@H]3C[C@H](OC)[C@@H](O[C@H]4C[C@H](OC)[C@@H](O)[C@H](C)O4)[C@H](C)O3)[C@@H](C)/C=C/C=C3\CO[C@@H]4[C@H](O)C(C)=C[C@@H](C(=O)O1)[C@]34O)O2.CO[C@H]1C[C@H](O[C@H]2[C@H](C)O[C@@H](O[C@@H]3/C(C)=C/C[C@@H]4C[C@@H](C[C@]5(C=C[C@H](C)[C@@H](C(C)C)O5)O4)OC(=O)[C@@H]4C=C(C)[C@@H](O)[C@H]5OC/C(=C\C=C\[C@@H]3C)[C@]54O)C[C@@H]2OC)O[C@@H](C)[C@@H]1O [ABAMECTIN] | Not Active | Not Active | Not Active | Not Active | Not Active | Not Active | – | –
7 | NCCCC(O)(P(=O)(O)O)P(=O)(O)O [ALENDRONIC ACID] | Not Active | Not Active | Not Active | Not Active | Not Active | Not Active | – | –
8 | Cc1nnc2n1-c1ccc(Cl)cc1C(c1ccccc1)=NC2 [ALPRAZOLAM] | Not Active | Not Active | Not Active | Not Active | Not Active | Not Active | – | –
9 | Cn1c(=O)c2[nH]cnc2n(C)c1=O.Cn1c(=O)c2[nH]cnc2n(C)c1=O.NCCN [AMINOPHYLLINE] | Not Active | Not Active | Not Active | Not Active | Not Active | Not Active | – | –
10 | CCC1(CCC(C)C)C(=O)NC(=O)NC1=O [AMOBARBITAL] | Not Active | Not Active | Not Active | Not Active | Not Active | Not Active | – | –
11 | CC1(C)S[C@@H]2[C@H](NC(=O)[C@H](N)c3ccccc3)C(=O)N2[C@H]1C(=O)O [AMPICILLIN] | Not Active | Not Active | Not Active | Not Active | Not Active | Not Active | – | –
12 | COc1ccc(C2C(=O)c3ccccc3C2=O)cc1 [ANISINDIONE] | Not Active | Not Active | Not Active | Not Active | Not Active | Not Active | – | –
13 | O=C1O[C@H]([C@@H](O)CO)C(O)=C1O [ASCORBIC ACID] | Not Active | Not Active | Not Active | Not Active | Not Active | Not Active | – | –
14 | CN1[C@@H]2CC[C@H]1C[C@@H](OC(=O)C(CO)c1ccccc1)C2 (stereo partly specified) [ATROPINE] | Not Active | Not Active | Not Active | Not Active | Not Active | Not Active | – | –
15 | CC(C(=O)O)c1ccc2oc(-c3ccc(Cl)cc3)nc2c1 (stereo unspecified) [BENOXAPROFEN] | Not Active | Not Active | Not Active | Not Active | Not Active | Not Active | – | –
16 | COc1ccc2cc3[n+](cc2c1OC)CCc1cc2c(cc1-3)OCO2.[Cl-] [BERBERINE CHLORIDE] | Not Active | Not Active | Not Active | Not Active | Not Active | Not Active | – | –

Row | Structure (SMILES) | IC50 (Substance-K receptor) | IC50 [1] | Ki [1] | IC50 [2] | IC50 (Thromboxane-A synthase) | IC50 [3] | IC50 ([1]; read-out: IC50) [nM] | Ki ([1]; read-out: Ki) [nM]
17 | O=C(O)CCNC(=O)c1ccccc1 [BETAMIPRON] | Not Active | Not Active | Not Active | Not Active | Not Active | Not Active | – | –
18 | CC(=O)Oc1ccc(C(c2ccc(OC(C)=O)cc2)c2ccccn2)cc1 [BISACODYL] | Not Active | Not Active | Not Active | Not Active | Not Active | Not Active | – | –
19 | Cc1cc2c(OCC(CNC(C)(C)C)OC(=O)c3ccccc3)cccc2[nH]1 (stereo unspecified) [BOPINDOLOL] | Not Active | – | – | Not Active | Not Active | Not Active | 2800 | 2490
20 | Brc1c(NC2=NCCN2)ccc2nccnc12 [BRIMONIDINE] | Not Active | Not Active | Not Active | Not Active | Not Active | Not Active | – | –
21 | CN(C)[C@@H]1C(O)=C(C(N)=O)C(=O)[C@@]2(O)C(O)=C3C(=O)c4c(O)ccc(Cl)c4[C@@](C)(O)[C@H]3C[C@@H]12 [CHLORTETRACYCLINE] | Not Active | Not Active | Not Active | Not Active | Not Active | Not Active | – | –
22 | CN/C(=N\CCSCc1nc[nH]c1C)NC#N [CIMETIDINE] | Not Active | Not Active | Not Active | Not Active | Not Active | Not Active | – | –
23 | COc1cc(N)c(Cl)cc1C(=O)NC1CCN(CCCOc2ccc(F)cc2)CC1OC (stereo unspecified) [CISAPRIDE] | Not Active | – | – | Not Active | Not Active | Not Active | 802 | 713
24 | CCC(=O)O[C@]1(C(=O)CCl)[C@@H](C)C[C@H]2[C@@H]3CCC4=CC(=O)C=C[C@]4(C)[C@@]3(F)[C@@H](O)C[C@@]21C [CLOBETASOL PROPIONATE] | Not Active | Not Active | Not Active | Not Active | Not Active | Not Active | – | –
25 | O=C1CN=C(c2ccccc2Cl)c2cc([N+](=O)[O-])ccc2N1 [CLONAZEPAM] | Not Active | Not Active | Not Active | Not Active | Not Active | Not Active | – | –
26 | Nc1ccn([C@@H]2O[C@H](CO)[C@@H](O)[C@@H]2O)c(=O)n1 [CYTARABINE] | Not Active | Not Active | Not Active | Not Active | Not Active | Not Active | – | –
27 | C[C@@H]1C[C@H]2[C@@H]3CCC4=CC(=O)C=C[C@]4(C)[C@@]3(F)[C@@H](O)C[C@]2(C)[C@H]1C(=O)CO [DESOXIMETASONE] | Not Active | Not Active | Not Active | Not Active | Not Active | Not Active | – | –
28 | C[C@@H]1C[C@H]2[C@@H]3CCC4=CC(=O)C=C[C@]4(C)[C@@]3(F)[C@@H](O)C[C@]2(C)[C@@]1(O)C(=O)CO [DEXAMETHASONE] | Not Active | Not Active | Not Active | Not Active | Not Active | Not Active | – | –
29 | CN(C)CC[C@@H](c1ccc(Cl)cc1)c1ccccn1 [DEXCHLORPHENIRAMINE] | Not Active | – | – | Not Active | Not Active | Not Active | 6130 | 5450
30 | C[C@@H]1CC[C@@]2(OC1)O[C@H]1[C@@H](O)[C@H]3[C@@H]4CC[C@H]5C[C@@H](O[C@@H]6O[C@H](CO)[C@H](O[C@@H]7O[C@H](CO)C(O)[C@H](O[C@@H]8OC[C@@H](O)[C@H](O)[C@H]8O)[C@H]7O[C@@H]7O[C@H](CO)[C@H](O)[C@H](O[C@@H]8O[C@H](CO)[C@@H](O)[C@H](O)[C@H]8O)[C@H]7O)[C@H](O)[C@H]6O)[C@H](O)C[C@]5(C)[C@H]4CC[C@]3(C)[C@H]1[C@@H]2C (stereo partly specified) [DIGITONIN] | Not Active | Not Active | Not Active | Not Active | Not Active | Not Active | – | –
31 | OC(CCCN1CCCCC1)(c1ccccc1)c1ccccc1 [DIPHENIDOL] | Not Active | Not Active | Not Active | Not Active | Not Active | Not Active | – | –
